{
  "source": "patent US8435982B2",
  "about": "“Pharmaceutical formulation containing lipophilic drugs and milk as a solubilizing/dispensing agent and method for the preparation thereof” (Pharmathen S.A., priority 2007, dated 2013)",
  "type_in_all_cases": "physicochemical",
  "key": {"[1]": {"test": "Final pH of drug-buffer solution solubilized/dispersed in milk", "description": "The appropriate buffer was added in milk gradually under magnetic stirring and the increase of the milk pH was measured. […] Subsequently, experiments were performed in order to evaluate if an active ingredient initially dissolved in buffer, when solubilized/dispersed in milk, is suitable for oral administration. […] The buffer volume was increased by 0.5 ml each time and the pH values after each addition were measured."}, "[2]": {"test": "Solubility studies in alkaline buffers", "conditions": "for solubility at 48 h: 25 °C, thermodynamic from solid", "description": "Solubility studies were performed at 25° C. in various buffers. More specifically:\nAn excess quantity of mefenamic acid powder was added to a 25 ml flask containing 15 ml of the appropriate aqueous medium. The flasks were placed in a thermostated water bath at 25° C. under constant shaking rate of 100 rpm for 48 h. The filtrated samples of mefenamic acid were monitored at 285 nm. Calibration curves were performed for every buffer, prior to measurements."}, "[3]": {"test": "Stability studies of NSAID alkaline buffer solutions", "conditions": "for total amount of drug compared to the initial value: alkaline buffer solution pH 12", "description": "The drugs were dissolved in the following buffers: 0.2 M NaH2PO4—NaOH pH 12 and 0.05 M glycine-NaOH pH 12. A weighted amount of drug, corresponding to its therapeutic dose, was dissolved in the appropriate volume of alkaline buffer. […] Also, the pH values of the aqueous alkaline NSAIDs solutions were measured before storage and at the predetermined time points."}},
  "note": "Where two headings read alike, the source gives them in different places.",
  "data": [
    {"smiles": "Cc1cccc(Nc2ccccc2C(=O)O)c1C", "note": "[Mefenamic acid]", "values": [
      {"measurement": "Final pH", "setting": "[1]; dose 50 mg, 10 mg/mL, 5 mL NaH2PO4/NaOH 0.2M (nominal pH=12) in 150 ml […] fat long duration milk", "value": 6.81},
      {"measurement": "Final pH", "setting": "[1]; dose 100 mg, 10 mg/mL, 10 mL NaH2PO4/NaOH 0.2M (nominal pH=12) in 150 ml […] fat long duration milk", "value": 7.01},
      {"measurement": "Final pH", "setting": "[1]; dose 500 mg, 25 mg/mL, 20 mL NaH2PO4/NaOH 0.2M (nominal pH=12) in 150 ml […] fat long duration milk", "value": 7.73},
      {"measurement": "Final pH", "setting": "[1]; dose 500 mg, 40 mg/mL, 12.5 mL NaH2PO4/NaOH 0.2M (nominal pH=12) in 150 ml […] fat long duration milk", "value": 7.35},
      {"measurement": "solubility (FIG. 1)", "setting": "[2]; 25° C., nominal pH range of 11-12, 0.2M NaH2PO4—NaOH buffer", "value": "greatly enhanced"}
    ]},
    {"smiles": "CS(=O)(=O)Nc1ccc([N+](=O)[O-])cc1Oc1ccccc1", "note": "[Nimesulide]", "values": [
      {"measurement": "total amount of drug compared to the initial value", "setting": "[3]; accelerated stability studies, 30° C.", "value": "99.7-100.2%"},
      {"measurement": "total amount of drug compared to the initial value", "setting": "[3]; accelerated stability studies, 40° C.", "value": "101-118%"},
      {"measurement": "change of pH (compared to the initial value)", "setting": "[3]; both long term and accelerated studies, all three temperatures", "value": "98.8-100.2%"},
      {"measurement": "% change of drug amount", "setting": "[3]; long term and accelerated stability studies", "value": "within acceptable ranges"},
      {"measurement": "total amount of drug compared to the initial value", "setting": "[3]; long term studies at 25° C. (3 and 6 months)", "value": "96.5-107%"}
    ]},
    {"smiles": "Cc1cnc(NC(=O)C2=C(O)c3ccccc3S(=O)(=O)N2C)s1", "note": "[Meloxicam]", "values": [
      {"measurement": "solubility at 48 h", "setting": "[2]; aqueous buffer, buffer glycine/NaOH at nominal pH=12, read-out: solubility", "value": 15.4, "unit": "mg/mL"}
    ]},
    {"smiles": "Cc1c(Cl)cccc1Nc1ccccc1C(=O)O", "note": "[Tolfenamic acid]", "values": [
      {"measurement": "Final pH", "setting": "[1]; dose 100 mg, 10 mg/mL, 10 mL NaH2PO4/NaOH 0.2M (nominal pH=12) in 150 ml […] fat long duration milk (tolfenamic acid)", "value": 7.42},
      {"measurement": "Final pH", "setting": "[1]; dose 100 mg, 20 mg/mL, 5 mL NaH2PO4/NaOH 0.1M (nominal pH=12) in 150 ml […] fat long duration milk", "value": 6.75},
      {"measurement": "Final pH", "setting": "[1]; dose 100 mg, 20 mg/mL, 5 mL NaH2PO4/NaOH 0.2M (nominal pH=12) in 150 ml […] fat long duration milk", "value": 7.03},
      {"measurement": "Final pH", "setting": "[1]; dose 200 mg, 20 mg/mL, 10 mL NaH2PO4/NaOH 0.2M (nominal pH=12) in 150 ml […] fat long duration milk", "value": 7.34},
      {"measurement": "Final pH", "setting": "[1]; dose 300 mg, 25 mg/mL, 12 mL NaH2PO4/NaOH 0.2M (nominal pH=12) in 150 ml […] fat long duration milk", "value": 7.40},
      {"measurement": "solubility at 48 h", "setting": "[2]; pH 12, aqueous buffer", "value": 35.1, "unit": "mg/mL"}
    ]},
    {"smiles": "CN1C(C(=O)Nc2ccccn2)=C(O)c2sccc2S1(=O)=O", "note": "[Tenoxicam]", "values": [
      {"measurement": "solubility at 48 h", "setting": "[2]; phosphate buffer, aqueous buffer, buffer 0.1M NaH2PO4/NaOH at nominal pH=12, read-out: solubility", "value": 14.3, "unit": "mg/mL"}
    ]}
  ]
}
